Experimental data reported in US20150238626A1, “RECEPTOR LIGAND LINKED CYTOTOXIC MOLECULES” (ONTOCHEM GMBH, priority 2012, published 2015).
Like-named read-outs stand apart in the source and are kept apart here.

Legend:
[1] = test system: MCF-7; assay: cells; format: cell-based, human; settings: 72 h compound treatment
Experimental: (§1) To evaluate the anti-proliferative and cytotoxic effect, respectively, of the compounds, a fluorometric resazurin-based cell viability assay was used. Human cancer and non-cancer cell lines (primarily breast cancer) were seeded with low densities into 96-well plates (1,500-20,000 cells per well), and were allowed to adhere for 24 h. Subsequently, the compounds—dissolved to appropriate concentrations in medium—were added to the cells and incubated for 4-72 h. In case the compound treatment was shorter than 72 h, the incubation solution was discarded, cells were rinsed once with cell culture medium and were allowed to proliferate in compound-free medium until 72 h were reached. Subsequently, medium was replaced by 50 μM resazurin in medium, and the cells were incubated for 2 h. Finally, the conversion of resazurin to resorufin by viable, metabolically active cells was measured using a Synergy 2 multiwell plate reader (BioTek, Bad Friedrichshall, Germany) with 540 nm excitation and 590 nm emission filter setting.
(§2) The cytostatic/cytotoxic effects of the new molecules according to this invention were evaluated by using a fluorometric cell proliferation assay. A panel of cell lines (most of them breast cancer) were treated for 4-72 hours with compound. The fluorometric read-out for cell viability was done after 72 hours in any case.

[2] = test system: T-47D; assay: Fluorometric resazurin-based cell proliferation assay, T-47D; parameters: species or system human; settings: for IC50: Homo sapiens, T47D, read-out: IC50 T-47D
Experimental: as §1, §2

[3] = test system: MDA-MB-231; assay: Fluorometric resazurin-based cell proliferation assay, MDA-MB-231; settings: Homo sapiens
Experimental: as §1, §2

[4] = test system: MDA-MB-468; assay: Fluorometric resazurin-based cell proliferation assay, MDA-MB-468; settings: Homo sapiens, read-out: IC50 MDA-MB-468
Experimental: as §1, §2

[5] = test system: 184B5; assay: Fluorometric resazurin-based cell proliferation assay, 184B5; settings: Homo sapiens, 72 h compound treatment
Experimental: as §1, §2

[6] = test system: caspases 3 and 7 in breast cancer cell lines; assay: Apoptosis assay, effector caspases 3 and 7; format: cell-based, human; settings: several breast cancer cell lines
Experimental: Compound-mediated induction of apoptosis was examined using comercially available luminescent caspase assays (Promega, Mannheim, Germany). Human cancer and non-cancer cell lines (primarily breast cancer) were seeded with densities depending on the incubation time into 96-well plates (5,000-20,000 cells per well for 48 h incubations; 15,000-40,000 cells per well for 16-24 h incubations), and were allowed to adhere for 24 h. Subsequently, the compounds—dissolved to appropriate concentrations in medium—were added to the cells in 70 μL per well. Cells were incubated for 16-48 h under standard growth conditions. For the last hour of incubation, 10 μL/well of 8× resazurin solution (400 μM) were added in order to multiplex the caspase activities with the cell number/cell viability. When the incubation was finished, conversion of resazurin to resorufin was measured as described above. […] Luminescence read-out was done using a Synergy 2 multiwell plate reader (BioTek, Bad Friedrichshall, Germany).
Cells were treated with the indicated compound concentrations for 24 h (A, C) and 48 h (B, D), respectively. Subsequently, activation of effector caspases 3/7 was measured using a luminescence-based caspase-Glo™ assay kit (Promega), and cell viability was fluorimetrically detected using a Resazurin-based cell viability assay. […]

[7] = test system: breast cancer cell lines (MCF-7, MDA-MB-468); assay: Proteome analysis by SILAC; format: cell-based, human; settings: various breast cancer cell lines
Experimental: SILAC was used for the examination of compound-mediated protein deregulations in the cells. In a first step, the incorporation rate of ^13C-labeled L-arginine (“heavy” medium) was determined for the used cell lines.
After finished incubation, the cells were harvested and lysed. […] The gel was cut into gel slices and in-gel digested with trypsin. The samples were measured with a LTQ Orbitrap Velos (Thermo Scientific) coupled with a nano-HPLC. The resulting mass spec-data were analyzed using the MaxQuant software.

[8] = test system: HT-29; assay: Fluorometric resazurin-based cell proliferation assay, HT-29; parameters: species or system human; settings: 72 h compound treatment
Experimental: as §1, §2

[9] = test system: SK-N-MC; assay: Fluorometric resazurin-based cell proliferation assay, SK-N-MC; settings: Homo sapiens, 72 h compound treatment
Experimental: as §1, §2

[10] = test system: HEK293; assay: Fluorometric resazurin-based cell proliferation assay, HEK293; settings: Homo sapiens, 72 h compound treatment
Experimental: as §1, §2

[11] = test system: panel of cell lines (most of them breast cancer); assay: Cell proliferation assay, statements over the panel of cell lines; format: cell-based, human; settings: 72 h treatment
Experimental: as §1, §2

[12] = MDA-MB-231, 72 h, read-out: IC50 MDA-MB-231

SMILES | IC50 ([1]; Homo sapiens, MCF7) [nM] | IC50 ([2]; 72 h) [nM] | IC50 [3, 12] [nM] | IC50 ([4]; MDA-MB-468, 72 h) [nM] | IC50 [5] [nM] | other results
CCC(C)[C@H](NC(=O)[C@H]1CCCCN1C)C(=O)N(C)[C@H](C[C@@H](OC(C)=O)c1nc(C(=O)N[C@@H](Cc2ccc(F)cc2)C[C@H](C)C(=O)NCCSSc2ccccn2)cs1)C(C)C (stereo partly drawn) [OC 169] | 18.4 | 18.7 | 31 | 18.7 | 26.1 | induction of apoptosis (caspase 3/7 activity) [6]: induction of apoptotic cell death mechanisms; regulation of protein expression (SILAC) [7]: comparable protein regulations
CCC(C)[C@H](NC(=O)[C@H]1CCCCN1C)C(=O)N(C)[C@H](C[C@@H](OC(C)=O)c1nc(C(=O)N[C@@H](Cc2ccc(F)cc2)C[C@H](C)C(=O)O)cs1)C(C)C (stereo partly drawn) [OC 501] | 4.1 | 5.4 | 7.2 | 3.6 | – | IC50 ([8]; Homo sapiens, HT-29): 1.2 nM
CCCO[C@H](C[C@H](C(C)C)N(C)C(=O)[C@@H](NC(=O)[C@H]1CCCCN1C)C(C)CC)c1nc(C(=O)N[C@@H](Cc2ccccc2)C[C@H](C)C(=O)O)cs1 (stereo partly drawn) [OC 503] | 4.2 | 8.3 | 10.9 | 8.2 | – | IC50 ([8]; Homo sapiens, HT-29): 0.8 nM
CCC(C)[C@H](NC(=O)[C@H]1CCCCN1C)C(=O)N(C)[C@H](C[C@@H](OC(C)=O)c1nc(C(=O)N[C@@H](Cc2ccccc2)C[C@H](C)C(=O)O)cs1)C(C)C (stereo partly drawn) [OC 509] | 0.34 | – | – | – | – | –
CCCO[C@H](C[C@H](C(C)C)N(CCC)C(=O)[C@@H](NC(=O)[C@H]1CCCCN1C)C(C)CC)c1nc(C(=O)N[C@@H](Cc2ccc(O)cc2)C[C@H](C)C(=O)O)cs1 (stereo partly drawn) [OC 515] | – | 0.09 | – | – | 0.09 | higher efficacy compared to the reference compound Paclitaxel ([2]; T-47D cells, 72 h treatment): up to 300 fold
CCCO[C@H](C[C@H](C(C)C)N(CCC)C(=O)[C@@H](NC(=O)[C@H]1CCCCN1C)C(C)CC)c1nc(C(=O)N[C@@H](Cc2ccc(O)cc2)C[C@H](C)C(=O)NCCSSc2ccccn2)cs1 (stereo partly drawn) [OC 516] | – | 0.2 | – | – | – | –
CCC(C)[C@H](NC(=O)[C@H]1CCCCN1C)C(=O)N(COC(=O)CC(C)C)[C@H](C[C@@H](OC(C)=O)c1nc(C(=O)N[C@@H](Cc2ccc(O)cc2)C[C@H](C)C(=O)NCCSSc2ccccn2)cs1)C(C)C (stereo partly drawn) [OC 517] | 1.9 | 4.9 | 1.6 | 1 | 6.2 | IC50 [9]: 1.1 nM; IC50 [10]: 5.9 nM; activity compared to Paclitaxel [11]: several folds more active than Paclitaxel
CC(=O)O[C@H]1C(=O)[C@@]2(C)[C@H]([C@H](OC(=O)c3ccccc3)[C@]3(O)C[C@H](OC(=O)[C@H](O)[C@@H](NC(=O)c4ccccc4)c4ccccc4)C(C)=C1C3(C)C)[C@]1(OC(C)=O)CO[C@@H]1C[C@@H]2O [Paclitaxel, reference compound] | 25.5 | – | – | – | – | IC50 ([2]; 72 h compound treatment): 30.7 nM; IC50 ([3]; MDA-MB-231, read-out: IC50 MDA-MB-231, 72 h compound treatment): 35.1 nM; IC50 ([4]; MDA-MB-468, 72 h compound treatment): 31.1 nM
CC[C@H](C)[C@H](NC(=O)[C@H]1CCCCN1C)C(=O)N(COC(=O)CC(C)C)[C@H](C[C@@H](OC(C)=O)c1nc(C(=O)N[C@@H](Cc2ccc(O)cc2)C[C@H](C)C(=O)O)cs1)C(C)C [Tubulysin A, reference compound] | – | – | – | – | – | IC50 [1]: 0.6 nM; IC50 [8]: 0.75 nM
